The source of these data is ChEMBL document CHEMBL1133380, “3-Imidazolylmethylaminophenylsulfonyltetrahydroquinolines, a novel series of farnesyltransferase inhibitors” (Bioorg Med Chem Lett, 2000).

Usually IC50 stands for the concentration that gives 50% inhibition. A low value points to greater potency.

For the assay, the target named is Protein farnesyltransferase (Homo sapiens, UniProt P49354+P49356). The experiment in a line: Inhibition of Farnesyltransferase. In kind it is protein-complex assay.
`CSCC[C@H](NC(=O)[C@@H]1Cc2ccccc2CN1C(=O)[C@@H](NC[C@@H](N)CS)C(C)C)C(=O)O` gave an IC50 of 0.0006 µM.

In turn, `CSCC[C@H](NC(=O)[C@@H]1Cc2ccccc2CN1C(=O)[C@@H](NCCc1cnc[nH]1)C(C)C)C(=O)O` yielded an IC50 of 0.0008 µM.

Turning to `N#Cc1cccc(CN(Cc2c[nH]cn2)c2cccc(S(=O)(=O)N3CCCc4ccccc43)c2)c1`, the IC50 turned out to be 0.57 µM.

In turn, `O=S(=O)(c1cccc(N(Cc2cnc[nH]2)Cc2cnc[nH]2)c1)N1CCCc2ccccc21` registered an IC50 of 0.13 µM.

`CCCCOc1ccc(S(=O)(=O)N2CCCc3ccccc32)cc1N(Cc1cnc[nH]1)Cc1cnc[nH]1` gave an IC50 of 0.48 µM.

The molecule `O=S(=O)(c1cccc(NCc2cnc[nH]2)c1)N1CCCc2ccccc21` displayed an IC50 of 15 µM.
